# The RepoRT retention time repository
# Experiment: RP, Waters Atlantis T3, 50 × 4.6 mm, 5 µm, 40 °C, 0.8 mL/min, estimated dead time 0.66 min; A: water + 0.05% trifluoroacetic acid; B: acetonitrile + 0.1% formic acid, pH 3; gradient (min/%B) 0/10 1/10 7/95 12/95 12.5/10 14/10
# Settings: stereoisomer not certain
row,SMILES,LC retention time [min]
1,CCC1OC(=O)C(C)C(OC2CC(C)(OC)C(O)C(C)O2)C(C)C(OC2OC(C)CC(N(C)C)C2O)C(C)(OC)CC(C)C(=O)C(C)C(O)C1(C)O (stereo not given) [Clarithromycin],5.91
2,CNC(=O)CC1NC(=O)c2csc(n2)-c2ccc(-c3nc(C4=NC(C(=O)N5CCCC5C(N)=O)CO4)cs3)nc2-c2csc(n2)-c2csc(n2)C(C(O)c2ccccc2)NC(=O)CNC(=O)c2nc(sc2COC)C(C(C)C)NC(=O)c2nc1sc2C (stereo not given) [GE2270A],6.62
3,COc1cccc2c1C(=O)c1c(O)c3c(c(O)c1C2=O)CC(O)(C(C)=O)CC3OC1CC(N)C(O)C(C)O1 (stereo not given) [Daunomycin],5.44
4,CCCCCCCCCC(=O)NC(Cc1c[nH]c2ccccc12)C(=O)NC(CC(N)=O)C(=O)NC(CC(=O)O)C(=O)NC1C(=O)NCC(=O)NC(CCCN)C(=O)NC(CC(=O)O)C(=O)NC(C)C(=O)NC(CC(=O)O)C(=O)NCC(=O)NC(CO)C(=O)NC(C(C)CC(=O)O)C(=O)NC(CC(=O)c2ccccc2N)C(=O)OC1C (stereo not given) [Daptomycin],5.79
5,CC(=O)OC1CC2(C)C(CC(O)C3C4(C)CCC(O)C(C)C4CCC32C)C1=C(CCC=C(C)C)C(=O)O (stereo not given) [Fusidinic acid],8.3
6,CC1C(NC(=O)C(=NOC(C)(C)C(=O)O)c2csc(N)n2)C(=O)N1S(=O)(=O)O (stereo not given) [Aztreonam],2.91
7,CCCC1CC(C(=O)NC(C(C)Cl)C2OC(SC)C(O)C(O)C2O)N(C)C1 (stereo not given) [Clindamycin],4.83
8,CC1(C)SC2C(NC(=O)C(N)c3ccccc3)C(=O)N2C1C(=O)O (stereo not given) [Ampicillin],4.09
9,CCC(C(=O)O)C1CCC(C)C(C(C)C(O)C(C)C(=O)C(CC)C2OC3(C=CC(O)C4(CCC(C)(C5CCC(O)(CC)C(C)O5)O4)O3)C(C)CC2C)O1 (stereo not given) [Salinomycin],11.2
10,CCC(C)CCCC(=O)NC(CCN)C(=O)NC(C(=O)NC(CCN)C(=O)NC1CCNC(=O)C(C(C)O)NC(=O)C(CCN)NC(=O)C(CCN)NC(=O)C(CC(C)C)NC(=O)C(CC(C)C)NC(=O)C(CCN)NC1=O)C(C)O (stereo not given) [Colistin],4.44

# Next, values leading:
row,LC retention time [min],SMILES
1,6.65,C=C(NC(=O)C(=C)NC(=O)c1csc(C2=NC3c4csc(n4)C4NC(=O)c5csc(n5)C(C(C)(O)C(C)O)NC(=O)C5CSC(=N5)C(=CC)NC(=O)C(C(C)O)NC(=O)c5csc(n5)C3(CC2)NC(=O)C(C)NC(=O)C(=C)NC(=O)C(C)NC(=O)C(C(C)CC)NC2C=Cc3c(C(C)O)cc(nc3C2O)C(=O)OC4C)n1)C(N)=O (stereo not given) [Thiostrepton]
2,5.75,CC1(C)SC2C(NC(=O)Cc3ccccc3)C(=O)N2C1C(=O)O (stereo not given) [Penicillin G]
3,6.77,C=C(NC(=O)c1csc(-c2nc3c(cc2O)-c2nc(cs2)C(=O)NC(C(C)O)C(=O)NC(=CC)c2nc(cs2)C(=O)NC2CC(O)C(=O)OCc4cccc5[nH]c(c(C)c45)C(=O)SCC(NC(=O)c4csc2n4)c2nc-3cs2)n1)C(N)=O (stereo not given) [Nosiheptide]
4,6.52,CC=CC=CC1OC(O)(C(CC)C(=O)NCC=CC=C(C)C(OC)C(C)C2OC(C=CC=CC=C(C)C(=O)c3c(O)cc[nH]c3=O)C(O)C2O)C(O)C(O)C1(C)C (stereo not given) [Kirromycin]
5,7.62,COC1C(OC(N)=O)C(O)C(Oc2ccc3c(O)c(NC(=O)c4ccc(O)c(CC=C(C)C)c4)c(=O)oc3c2C)OC1(C)C (stereo not given) [Novobiocin]
6,4.06,COc1cc(Cc2cnc(N)nc2N)cc(OC)c1OC [Trimethoprim]
7,6.17,COC1C=COC2(C)Oc3c(C)c(O)c4c(O)c(c(C=NN5CCN(C)CC5)c(O)c4c3C2=O)NC(=O)C(C)=CC=CC(C)C(O)C(C)C(O)C(C)C(OC(C)=O)C1C (stereo not given) [Rifampicin]
8,3.55,CNC(CC(C)C)C(=O)NC1C(=O)NC(CC(N)=O)C(=O)NC2C(=O)NC3C(=O)NC(C(=O)NC(C(=O)O)c4cc(O)cc(O)c4-c4cc3ccc4O)C(O)c3ccc(c(Cl)c3)Oc3cc2cc(c3OC2OC(CO)C(O)C(O)C2OC2CC(C)(N)C(O)C(C)O2)Oc2ccc(cc2Cl)C1O (stereo not given) [Vancomycin]
9,4.02,CC(=O)NC1C(OC2c3ccc(c(Cl)c3)Oc3cc4cc(c3O)Oc3ccc(cc3Cl)CC3NC(=O)C(N)c5ccc(O)c(c5)Oc5cc(O)cc(c5)C(NC3=O)C(=O)NC4C(=O)NC3C(=O)NC2C(=O)NC(C(=O)O)c2cc(O)cc(OC4OC(CO)C(O)C(O)C4O)c2-c2cc3ccc2O)OC(CO)C(O)C1O (stereo not given) [Teicoplanin A3-1]
10,5.22,CCCC=CC=CC(=O)NC(CC(N)=O)C(=O)NC(CC(N)=O)C(=O)NC(C(=O)NC(CCCN)C(=O)NC(C(=O)NC(C(=O)NC(C(=O)NC(C(=O)NC(Cc1ccccc1)C(=O)NC(CCCN)C(=O)NC(C(=O)NC(C(=O)NC(C(=O)NCC(=O)NC(CC(C)C)C(=O)NC(C)C(=O)NC(C(=O)O)C1CCC(O)C(Cl)C1)C1CCC(O)CC1)C(C)O)C1CCC(O)CC1)C(C)O)C1CCC(O)CC1)C1CCC(O)CC1)C(C)O)C1CCC(O)CC1 (stereo not given) [Ramoplanin A]
